Laboratory results published in US11767295B2, “Isoindole derivative” (TIANJIN HEMAY PHARMACEUTICAL CO., LTD., priority 2018, dated 2023).

Key:
Assay type in all cases: in vivo
[1] = test system: Phorbol ester (TPA)-induced ear swelling in mice; experiment: Inhibition of phorbol ester (TPA)-induced ear swelling in mice (Biological Example 4); settings: ICR mice, 30 mg/mL in acetone, 40 μL in 2 administrations on right ear; 5 hours after TPA modeling
Experimental: 40 male ICR mice were selected and divided into 5 groups. There were 8 mice in each group.
Before the test, the animals were grouped and the hair around the right ear of the mice was removed.
20 μL of respective drug was applied to the animals in each test group (a blank solvent was applied to the model control group). Modeling and induction were carried out after 1 h 10 min. Except for the blank group, 20 μL of TPA at a concentration of 125 μg/mL were applied to the right ears of the animals for induction. After induction for 10 minutes, 20 μL of respective drug was applied to the right ears of the animals in each test group (a blank solvent was applied to the model control group).
After modeling for 5 hours, ear pieces of both sides on the same location of animals in each group were taken with a punch and weighed to calculate the ear swelling degree, ear swelling rate and inhibitory rate.
The ear swelling degree and ear swelling rate after modeling and administration for 5 hours were analyzed and tested with One-Way ANOVA multiple-group test index in SPSS17.0. P<0.05 indicated there were statistical differences. Ear swelling degree (mg)=right ear weight (mg)−left ear weight (mg); Ear swelling rate (%)=(right ear weight−left ear weight)/left ear weight×100%; Inhibitory rate of ear swelling degree (%)=1−(ear swelling degree of drug administration group−ear swelling degree of blank control group)/(ear swelling degree of model control group−ear swelling degree of blank control group)×100%.

[2] = test system: DNCB-induced atopic dermatitis in Balb/c mice; experiment: Efficacy evaluation test of DNCB-induced atopic dermatitis in Balb/c mice model (Biological Example 1); settings: BID × 10
Experimental: 60 healthy male SPF Balb/c mice, each of which the body weight was 19-21 g, were randomly divided into 6 groups by body weight. There were 10 mice in each group.
(§1) Before the test, the hair around the right ear of the mouse was removed to reduce the interference in the drug adhesion to the hair.
The start of the test was recorded as Day 1. The specific time for measuring ear thickness was slightly adjusted based on FIG. 1. After the end of the 18th day of the test, blood was taken from each animal to detect the concentration of immunoglobulin (IgE) in the serum (in accordance with the kit instructions). Both ears of the animal were cut off. Ear pieces were cut by an 8 mm punch at the fixed position of the ears and weighed. Differences in the swelling degrees of two ears were calculated.
(§2) The changes in mouse ear thickness and the ear weights of the same area and the IgE concentrations in the serum among different groups on the 18th day were analyzed and compared statistically with One-Way Anova in SPSS 17, respectively. The G test method was used to delete outliers. p<0.05 indicated there were statistical differences. Ear swelling degree (mg)=right ear weight (mg)−left ear weight (mg); Ear thickness change (mm)=right ear thickness (mm)−left ear thickness (mm); Inhibitory rate of ear swelling degree (%)=1−(ear swelling degree of drug administration group−ear swelling degree of blank control group)/(ear swelling degree of model control group−ear swelling degree of blank control group)×100%; Inhibitory rate of ear thickness change (%)=1−(ear thickness change of drug administration group−ear thickness change of blank control group)/(ear thickness change of model control group−ear thickness change of blank control group)×100%; Inhibitory rate of IgE (%)=1−(IgE concentration in administration group−IgE concentration in blank control group)/(IgE concentration in model control group−IgE concentration in blank control group)×100%.

[3] = test system: DNCB-induced atopic dermatitis in Balb/c mice; experiment: Efficacy evaluation test of DNCB-induced atopic dermatitis in Balb/c mice model (Biological Example 3); settings: BID × 11
Experimental: 30 healthy male SPF Balb/c mice, each of which the weight was 19-21 g, were randomly divided into 3 groups by body weight. There were 10 mice in each group.
as §1
The start of the test was recorded as Day 1. The specific time for measuring ear thickness and body weight was slightly adjusted based on FIG. 3. After the end of the Day 19 of the test, blood was taken from each animal to detect the concentration of immunoglobulin (IgE) in the serum (in accordance with the kit instructions). Both ears of the animal were cut off. Ear pieces were cut by an 8 mm punch at the fixed position of the ears and weighed. Differences in the swelling degree of two ears were calculated.
as §2, with “of” for “among”, “19th” for “18th”

[4] = Balb/c mice, 1 mg/mouse on ear, Day 10, Mean ± S.D.
[5] = Balb/c mice, 1 mg/mouse on ear, Day 17, Mean ± S.D.
[6] = Balb/c mice, 1 mg/mouse on ear, Day 18, Mean ± S.D.
[7] = 0.1 mg/mouse on ear, 19th day, vs model and blank control

## CCOc1cc([C@H](CC(=O)OC)N2C(=O)c3cccc(NC(C)=O)c3C2=O)ccc1OC [Example 10, methyl (S)-3-(4-acetamido-1,3-dioxoisoindolin-2-yl)-3-(3-ethoxy-4-methoxyphenyl)propionate]
[1]
  Inhibitory Rate of Ear Swelling Degree: 71.7%
[2]; 1 mg/mouse on ear, 18th day, vs model and blank control
  Inhibitory Rate of Ear Swelling Degree: 45.7%
[2]; Balb/c mice, 1 mg/mouse (50 mg/mL, 20 μL) on ear, Day 1, Mean ± S.D.
  Weight Changes of Animals, Day 1: 20.6 ± 0.8 g
[2]; Balb/c mice, 1 mg/mouse on ear, 18th day, vs model and blank control
  Inhibitory Rate of Ear Thickness: 58.8%
[2]; Balb/c mice, 1 mg/mouse on ear, Day 1, Mean ± S.D.
  Ear Thickness Change, Day 1: 0.21 ± 0.01 mm
[2]; [4]
  Ear Thickness Change, Day 10: 0.35 ± 0.07 mm
  Weight Changes of Animals, Day 10: 22.3 ± 1.1 g
[2]; [5]
  Ear Thickness Change, Day 17: 0.46 ± 0.10 mm
  Weight Changes of Animals, Day 17: 21.8 ± 1.3 g
[2]; [6]
  Ear Thickness Change, Day 18: 0.44 ± 0.07 mm
  Weight Changes of Animals, Day 18: 22.4 ± 1.3 g
[2]; Table 4, Balb/c mice, 1 mg/mouse on ear, 18th day
  Ear Thickness: 0.44 ± 0.07 mm
[2]; right minus left ear piece weight (8 mm punch), 1 mg/mouse on ear, 18th day
  Ear Swelling Degree: 13.7 ± 2.9 mg
[2]; serum, 1 mg/mouse on ear, 18th day
  IgE Concentration: 4366.7 ± 1933.9 ng/mL
[2]; serum, 1 mg/mouse on ear, 18th day, vs model and blank control
  Inhibitory Rate of IgE Concentration: 57.5%
[3]; [7]
  Inhibitory Rate of Ear Swelling: 38.5%
  Inhibitory Rate of Ear Thickness: 27.1%
[3]; Balb/c mice, 0.1 mg/mouse (5 mg/mL, 20 μL) on ear, Day 1, Mean
  Weight Changes of Animals, Day 1: 20.5 g
[3]; Balb/c mice, 0.1 mg/mouse on ear, Day 1, Mean ± S.D.
  Ear Thickness Change, Day 1: 0.26 ± 0.01 mm
[3]; Balb/c mice, 0.1 mg/mouse on ear, Day 8, Mean
  Weight Changes of Animals, Day 8: 21.8 g
[3]; Balb/c mice, 0.1 mg/mouse on ear, Day 10, Mean ± S.D.
  Ear Thickness Change, Day 10: 0.52 ± 0.11 mm
[3]; Balb/c mice, 0.1 mg/mouse on ear, Day 12, Mean
  Weight Changes of Animals, Day 12: 21.9 g
[3]; Balb/c mice, 0.1 mg/mouse on ear, Day 14, Mean
  Weight Changes of Animals, Day 14: 22.2 g
[3]; Balb/c mice, 0.1 mg/mouse on ear, Day 16, Mean
  Weight Changes of Animals, Day 16: 22.0 g
[3]; Balb/c mice, 0.1 mg/mouse on ear, Day 17, Mean ± S.D.
  Ear Thickness Change, Day 17: 0.65 ± 0.09 mm
[3]; Balb/c mice, 0.1 mg/mouse on ear, Day 19, Mean
  Weight Changes of Animals, Day 19: 22.3 g
[3]; Balb/c mice, 0.1 mg/mouse on ear, Day 19, Mean ± S.D.
  Ear Thickness Change, Day 19: 0.63 ± 0.05 mm
[3]; Table 11, 0.1 mg/mouse on ear, 19th day
  Ear Thickness: 0.63 mm
[3]; right minus left ear piece weight, 0.1 mg/mouse on ear, 19th day
  Ear Swelling Degree: 7.7 mg
[3]; serum, 0.1 mg/mouse on ear, 19th day
  IgE Concentration: 5543.4 ng/mL
[3]; serum, 0.1 mg/mouse on ear, 19th day, vs model and blank control
  Inhibitory Rate of IgE Concentration: 29.7%
